One series concerns liver. In words: rAAV transduction in liver with Z-LLL. It counts as in vivo, mouse. Particulars: 1 month post-infection. As to the method:
Recombinant AV.LacZ (5×10^10 particles) was also administered to mouse liver either as virus alone in PBS, virus in combination with 40 μM Z-LLL in PBS, or virus in combination with 20 μM LLnL in PBS. Virus was directly instilled into portal vein of the C57B6 mice. AAV-mediated LacZ transgene expression was evaluated by histology staining at 2 and 4 weeks post infection in frozen tissue sections.

In the next series the test system is IB3-1 cells. Nature of the series: AAV2 FLAG-Luc transduction of IB3-1 cells. It counts as cell-based, human. Particulars: 20 to 80 μM. The text has this: A. To screen for agents that enhance rAAV transduction, any number of cells can be used. A range of concentrations of the agent to be tested can be determined based on, for instance desirable profiles of the agent, desirable toxicity profiles of the agent and/or concentration of the agents employed in vivo. The usefulness of the cell type chosen for the screen can be confirmed by testing compounds, e.g., proteasome inhibitors such as LLnL and ZLL which are known to increase rAAV transduction. For example, a AAV2 FLAG-Luc vector was employed to transduce HeLa, ferret fibroblasts, IB3 and Huh (liver) cells in the presence or absence of the proteasome inhibitor MG132. MG132 was confirmed to enhance AAV transduction in all cell types tested: HeLa cell transduction was enhanced about 500-fold at 80 μM, and 200-fold at 40 μM, MG132; ferret fibroblast cell transduction was enhanced about 200-fold at 20 μM, and 17-fold at 4 μM, MG132; IB3-1 cell transduction was enhanced about 30 to 70-fold at 20 to 80 μM MG132; and Huh-7 cell transduction was enhanced about 15-fold at 20 to 80 μM MG132. There was no difference in rAAV transduction efficiency in HeLa cells when either DMSO or ETOH was used as a vehicle for MG132. B. HeLa cells were selected to screen for additional agents that enhance rAAV transduction, although any cell strain or line; or primary cells, may be employed. […]

Another series has as its system ENaC. Nature of the series: Amiloride-sensitive Isc time course in polarized CuFi epithelia. It counts as cell-based, human. Particulars: 1 to 14 days.
Another series concerns Balb/c mice. Nature of the series: Safety of anthracyclines in Balb/c mice. The settings on record: intranasal, 10% HDE. The format is in vivo, mouse. The text has this:
Animals were followed for seven days post dose.
Safety endpoints included morbidity and mortality, clinical observations, body weights, gross necropsy observations and histopathology. Transduction endpoints included luciferase and GFP analysis.

In series [1] the test system is polarized human airway epithelial cells. The format is cell-based. As to the method:
Primary culture of human bronchial epithelia and reagents utilized. Primary human airway epithelial cells were collected by enzymatic digestion of bronchial samples from lung transplants, as previously described (Kondo et al., 1991; Zabner et al., 1996). Isolated primary airway cells were seeded at a density of 5×10^5 cells/cm^2 onto collagen-coated Millicell-HA culture inserts (Millipore Corp., Bedford, Mass.). Primary cultures were grown at the air-liquid interface for more than 2 weeks, by which time differentiation into a mucociliary epithelium occurs. The culture medium, used to feed only the basolateral side of the cells, contained 49% DMEM, 49% Ham's F12 and 2% Ultraser G (BioSepra, Cedex, France). Dimethyl Sulphoxide (DMSO), camptothecin (Camp), etoposide (Etop), aphidicolin (Aphi), hydroxyurea (HU) and genistein (Geni) were purchased from Sigma (St. Louis, Mo.). Tripeptidyl aldehyde proteasome inhibitors N-Acetyl-L-Leucyl-L-Leucyl-Norleucine (LLnL) and benzyloxycarbonyl-L-leucyl-L-leucyl-L-leucinal (Z-LLL) were purchased from Calbiochem-Novabiochem Corporation (La Jolla, Calif.). Ubiquitin ligase (E3) inhibitors were obtained from Bachem Bioscience Inc. (King of Prussia, Pa.). Anti-AAV capsid monoclonal antibody (Anti-VP1, 2 and 3) was purchased from American Research Products (Belmont, Mass.) and anti-ubiquitin antibody was purchased from Santa Cruz Biotechnology Inc. (Santa Cruz, Calif.).
Transduction of polarized airway epithelial cells and primary human fibroblasts. rAAV infection of fully differentiated bronchial cells was performed as described in Duan et al. (1998). For infections from the apical surface of the airway cells, 5 μl rAAV was mixed with 50 μl of culture media and applied directly onto the apical compartment of Millicell inserts (MOI=10,000 particles/cell). During apical infection, the basolateral side of the Millicell was continuously bathed in culture media. Gene transfer to the basal side was performed by inverting Millicell inserts and applying viral vector to the bottom of the supporting filter membrane in a 50 μl volume for 2 hours. Subsequently, Millicell inserts were returned to the upright position, in the continued presence of the original viral inoculum plus an additional 450 μl of media. For both apical and basolateral infections, rAAV containing media was removed after 24 hours and replaced with either fresh culture media (for the basal side) or exposed to air (for the apical side). To test the effect of different agents on the efficiency of AAV transduction in polarized airway cells, 1 μl of each solution was mixed with AAV prior to infection of airway epithelia. Agents were usually presented during the 24 hours AAV infection period unless indicated otherwise. Most of the agents were dissolved in DMSO except for hydroxyurea (dissolved in phosphate buffered saline), H-Leu-Ala-OH (dissolved in 0.9% glacial acetic acid) and H-His-Ala-OH (dissolved in 50% methanol). The working concentrations of the agents were as follows: 0.1 μM camptothecin, 10 μM etoposide, 5 μg/ml aphidicolin, 40 mM hydroxyurea, 50 μM genistein, 40 μM LLnL and 4 μM Z-LLL. When the ubiquitin ligase (E3) inhibitors (H-Leu-Ala-OH and H-His-Ala-OH) were used, airway cells were pretreated with a combination of both inhibitors at a final concentration of 2 mM for 60 minutes prior to infection, followed by the continued presence of inhibitor (0.2 mM) during the entire 24 hours infection period from the basolateral surface. Studies involving EGTA treatment were performed by transiently treating the apical membrane of polarized airway epithelia with 3 mM EGTA in water for 10 minutes (Duan et al., 1998). Following hypotonic EGTA treatment, cultures were washed twice with culture medium and infected with rAAV in the presence or absence of 40 μM LLnL. Human primary fibroblast cells (P4) were maintained in 10% fetal bovine serum (FBS), 1% penicillin and streptomycin, and 89% DMEM. […]

Series [2] deals with polarized human airway epithelial cultures. In words: AV2.RSVluc and AV2.RSVlucCap5 transduction of polarized human airway epithelial cultures. Particulars: virus applied to the apical surface. It counts as cell-based. The text has this: To better understand serotype-specific differences in airway transduction, the effect of proteasome inhibitors on rAAV-2 and rAAV-5 transduction in polarized human airway epithelial cultures and mouse lung was examined (FIGS. 2 and 6).

A short description of the next series: Solubility in ethanol. The format is physicochemical.

Peptide text beside a SMILES is read from it. * marks the point of attachment. Cbz = O=C(OCc1ccccc1)*

Results on three molecules are retold here after patent US20080206198A1, “Compounds and methods for pharmico-gene therapy of epithelial sodium channel associated disorders” (priority 2003, published 2008).

`CC(C)C[C@@H](C=O)NC(=O)[C@H](CC(C)C)NC(=O)[C@H](CC(C)C)NC(=O)OCc1ccccc1` [Z-LLL, N-carbobenzoxyl-L-leucinyl-L-leucinyl-L-leucinal] (Cbz-Leu-Leu-Leu-aldehyde): the “increase in rAAV transduction in the liver” value in the series with liver stood at 7 fold. The “enhancement of IB3-1 cell transduction” value with IB3-1 cells was in the range of 30 to 70 fold.

As to `COc1cccc2c1C(=O)c1c(O)c3c(c(O)c1C2=O)C[C@@](O)(C(=O)CO)C[C@@H]3O[C@H]1C[C@H](N)[C@H](O)[C@H](C)O1` [doxorubicin], in the series on ENaC, the “ENaC Isc time course” value is recorded as “gradual decline in ENaC Isc”. In addition, in the series with Balb/c mice (7 days), the “mortality and clinical observations” value was “early mortality of some animals, ruffled hair coats and sick mice”. In addition, the body weight result in the series with Balb/c mice (over the week) is recorded as “lost considerable body weight”.

For the molecule “N-acetyl-L-leucinyl-L-leucinal-L-norleucinal [LLnL]”, the “augmentation in transgene expression” value in series [1] (applied to the serosal surface along with rAAV, 2 days post infection, 40 μM LLnL) is on record as “greater than 200 fold”. The “time of peak augmentation in AAV transduction” value in series [1] (co-administration with rAAV to the mucosal surface) is reported as 22 days post-infection. In addition, the “toxicity of continual administration” value in series [1] (continual administration after basolateral infection) is reported as “toxic to cells”. In addition, the “time of transient peak in gene expression” value in series [1] (rAAV infection from the serosal surface) is reported as 72 hours post-infection. Moreover, in series [2], the “increase in AV2.RSVlucCap5 transduction” value is 12 fold. In the series “Solubility in ethanol”, the solubility in ethanol result is given as “poor solubility”.
